Source: US6867186B2, “Cell-permeable protein inhibitors of calpain” (New England Medical Center Hospital, priority 1997, dated 2005)
“Also recorded” adds a separate entry of the source.

What was measured:
μ-calpain = biological target: T1, μ-calpain (Sus scrofa, UniProt P35750); experiment: Fluorometric calpain assay, suc-LLVY-AMC substrate; format: biochemical, porcine
T1 construct: pure p-calpain (porcine erythrocyte) was obtained from Chemicon; purchased Chemicon; host or cells: porcine erythrocyte
T1 sequence (P35750 1-714): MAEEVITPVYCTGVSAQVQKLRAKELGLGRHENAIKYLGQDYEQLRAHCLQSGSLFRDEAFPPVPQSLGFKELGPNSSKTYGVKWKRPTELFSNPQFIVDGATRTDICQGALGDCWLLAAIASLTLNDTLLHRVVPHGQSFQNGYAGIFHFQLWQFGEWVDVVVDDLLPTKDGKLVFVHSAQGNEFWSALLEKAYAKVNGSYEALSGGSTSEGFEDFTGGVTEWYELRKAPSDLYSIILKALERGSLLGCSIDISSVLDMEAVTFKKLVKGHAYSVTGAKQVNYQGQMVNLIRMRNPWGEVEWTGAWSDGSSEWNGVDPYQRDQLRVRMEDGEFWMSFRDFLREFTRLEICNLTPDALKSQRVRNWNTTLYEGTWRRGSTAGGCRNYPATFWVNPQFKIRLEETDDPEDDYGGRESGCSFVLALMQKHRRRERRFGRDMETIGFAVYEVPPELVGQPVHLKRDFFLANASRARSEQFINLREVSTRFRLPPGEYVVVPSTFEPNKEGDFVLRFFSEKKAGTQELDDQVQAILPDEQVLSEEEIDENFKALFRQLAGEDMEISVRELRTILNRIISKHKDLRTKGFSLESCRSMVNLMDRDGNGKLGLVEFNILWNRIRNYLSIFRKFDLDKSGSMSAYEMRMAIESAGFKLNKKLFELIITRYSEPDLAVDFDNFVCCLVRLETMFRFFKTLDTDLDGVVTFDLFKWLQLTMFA
T1 sequence (P04574 1-266 partner): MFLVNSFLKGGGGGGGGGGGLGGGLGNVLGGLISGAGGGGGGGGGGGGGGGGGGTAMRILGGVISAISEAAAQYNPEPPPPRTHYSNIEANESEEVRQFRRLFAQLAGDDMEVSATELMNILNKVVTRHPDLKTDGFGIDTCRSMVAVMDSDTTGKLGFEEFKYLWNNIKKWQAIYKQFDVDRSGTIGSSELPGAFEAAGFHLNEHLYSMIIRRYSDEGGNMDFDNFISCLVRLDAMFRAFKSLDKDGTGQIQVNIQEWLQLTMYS
From the text: Unless otherwise noted, the materials used in the studies described below were obtained from commercial suppliers. Sepharose 2B was obtained from Pharmacia Biotech (Upsala, Sweden); pure p-calpain (porcine erythrocyte) was obtained from Chemicon; succinyl-LLVY-AMC (SEQ ID NO:7) was obtained from Bachem; A23187 was obtained from LC Labs; human alpha-thrombin was obtained from Hematologic Technologies (Essex Junction, VT); anti-P-selectin antibodies conjugated to phycoerythrin were obtained from Becton Dickinson (San Jose, Calif.); Oregon Green-phalloidin was obtained from Molecular Probes (Eugene, Oreg.). All other chemicals were ACS grade or better and were obtained from Sigma Chemical Company (St. Louis, Mo.).
To assess the ability of calpastat to inhibit calpain activity, a fluorometric calpain assay was performed. The assay determined specific peptidyl hydrolysis of the peptidyl 7-amino bond of suc-LLVY-AMC (SEQ ID NO:7) by calpain.
The assay was performed in a 0.5 ml reaction volume at 37° C. The reaction buffer contained 50 mM KC1, 10 mM Tris-HCl (pH 7.5), 1 mM EDTA, and 1 mM DTT. Two hundred μM suc-LLVY-AMC (SEQ ID NO:7) was added along with 5 mM CaCl2. Calpastat or S-TIPPEY-ala was then added at the given concentrations (FIG. 9). […] The initial rate of AMC production was measured by fluorimetry for the first few minutes. […]

[1] = tested on: red blood cells isolated from sickle cell patients; experiment: Na2S2O5-induced sickling of sickle erythrocytes; format: cell-based, human
Description: To examine sickling, a wet preparation of red blood cells (as opposed to a dried smear) was made by placing blood under a coverslip on a glass slide. The slide was placed under a light microscope, and the number of cells displaying sickled morphology was counted. Na2S2O5 was used to increase the rate of sickling.
When EDTA-anticoagulated peripheral blood from a sickle cell patient was preincubated with calpastat for 10 minutes prior to exposure to sodium metabisulfite (Na2S2O5), there was a significant delay (about 30 minutes) in sickling.
In a second experiment, the effect of calpastat on recovery from sickling was measured. Blood from the same patient was incubated with Na2S2O5, for two hours in a microfuge tube. The supernatant plasma was then removed from the settled erythrocytes and the erythrocytes were diluted in four volumes of saline. The washed erythrocytes were then incubated in saline, and Wright-Giemsa stained smears were made 60 minutes following the washout of Na2S2O5.

U1 cells = experiment: U1 cell viability (Trypan-blue exclusion); format: cell-based, human; conditions: 5 μM calpastat, 96 hr; from 40% without
Description: U1 is a human promonocytic cell line that is chronically infected with HIV-1 and that constitutively expresses low levels of HIV-1. […] In the present experiment, 1×10^6 cells/ml were treated with various dosages of calpastat and incubated for one hour at 37° C. After incubation, various concentrations of Tpg were added to the calpastat-treated cells and aliquoted into a 24-well plate. To observe the stimulation of HIV-1 activity by Tpg, equivalent numbers of cells were treated with Tpg alone. The cells were then incubated at 37° C. for up to four days, and supernatants from the cell culture were collected each day to measure HIV-1 activity. The viability of cells treated with both Tpg and calpastat were determined each day by Trypan-blue exclusion test. The HIV-1 activity in the collected supernatants was determined by measuring the HIV-1 p24 core antigen protein by ELISA (Dupont Medical Products, Boston, Mass.) according to the manufacturer's instructions.
In another series of experiments, U1 cells, which are latently infected with HIV-1 provirus, were plated at 10^6 cells/well in 1 ml of medium and treated with varying concentrations of either calpastat (FIG. 7E) or calpeptin (benzyloxycarbonyl-leucyl-norleucinal) (FIG. 7F) for 45 minutes before addition of thapsigargin (4 nM final concentration). The viability of U1 monocytes was 90% at 48 hours of thapsigargin (4 nM) treatment, in the presence or absence of calpain inhibitors. After 48 hours of stimulation, HIV-1 p24 antigen levels were determined in 200 μl of tissue culture supernatant, using a p24 ELISA (DuPont). All assays were performed on triplicate cultures. Mean values and standard deviations are shown for each concentration of inhibitor (FIGS. 7E-7F).

[2] = sixty minutes following Na2S2O5 washout

| Substance | inhibition of purified μ-calpain (μ-calpain; up to 10 μM, listed as S-TIPPEY-ala) | final percentage of sickled cells ([1]; Na2S2O5) | delay in sickling ([1]; preincubated 10 minutes prior to Na2S2O5) | percentage of discocytes compared to S-TIPPEY-ala-treated cells [1, 2] | percentage of sickled cells compared to S-TIPPEY-ala-treated cells [1, 2] | viability of U1 cells in 4 nM Tpg (U1 cells) [%] | IC50 (μ-calpain; 70 nM enzyme, 37° C., read-out: IC50, μ-calpain cleavage of suc-LLVY-AMC) [µM] |
| --- | --- | --- | --- | --- | --- | --- | --- |
| AAVALLPAVLLALLAPEKLAERADAAAPEAAELLEKKTGV [Calpastat-ala] | no inhibitory activity; also recorded: no inhibition |  |  |  |  |  |  |
| H-AAVALLPAVLLALLAPEKLGERDDTIPPEYRELLEKKTGV-OH [Calpastat] |  | no detectable difference | about 30 minutes | two-fold greater | two-fold lower | 90 | 0.05 |
